Measured values as given in patent publication US11596614B2, “Treatment of intrahepatic cholestatic diseases” (CymaBay Therapeutics, Inc., priority 2014, dated 2023).

Assays:
PPARa = target: T1, PPARa (Homo sapiens, UniProt Q07869); assay: Specificity for PPARδ compared with PPARa; type: biochemical
T1 sequence (Q07869 1-468): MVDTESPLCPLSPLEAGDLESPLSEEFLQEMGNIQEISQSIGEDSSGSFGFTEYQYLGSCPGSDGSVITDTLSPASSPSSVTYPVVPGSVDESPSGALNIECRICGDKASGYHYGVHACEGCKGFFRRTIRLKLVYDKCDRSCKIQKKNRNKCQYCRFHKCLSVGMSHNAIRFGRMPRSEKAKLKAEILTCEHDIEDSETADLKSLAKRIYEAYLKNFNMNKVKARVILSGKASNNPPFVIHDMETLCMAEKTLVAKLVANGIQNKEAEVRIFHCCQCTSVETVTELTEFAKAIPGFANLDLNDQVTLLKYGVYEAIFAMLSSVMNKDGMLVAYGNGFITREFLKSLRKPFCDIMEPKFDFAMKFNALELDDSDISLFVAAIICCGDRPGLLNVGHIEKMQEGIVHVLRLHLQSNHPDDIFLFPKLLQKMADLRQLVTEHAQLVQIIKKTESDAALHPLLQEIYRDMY
Description: It is specific (>600-fold and >2500-fold compared with PPARa and peroxisome proliferator-activated receptor-γ receptors). PPARδ activation stimulates fatty acid oxidation and utilization, improves plasma lipid and lipoprotein metabolism, glucose utilization, and mitochondrial respiration, and preserves stem cell homeostasis.

subjects with PBC = assay: Example 1: trial in subjects with PBC on UDCA; type: in vivo, human; details: on treatment, 50 or 200 mg/day
Description: The trial subjects were adult, male or female, with a diagnosis of PBC by at least two of the following three criteria: (a) a history of alkaline phosphatase (ALP) above the upper limit of normal (ULN) for at least six months, (b) positive anti-mitochondrial antibody titers> 1/40 on immunofluorescence or M2 positive by enzyme linked immunosorbent assay or positive PBC-specific antinuclear antibodies, and (c) documented liver biopsy result consistent with PBC, on a stable and recommended dose of UDCA for the past twelve months, and ALP≥1.67×ULN. Exclusion criteria included AST or ALT≥3×ULN, total bilirubin (TBIL)≥2×ULN, autoimmune hepatitis or a history of chronic viral hepatitis, PSC, the current use of fibrates or simvastatin, the use of colchicine, methotrexate, azathioprine, or systemic steroids in the previous two months, the use of an experimental treatment for PBC, and the use of an experimental or unapproved immunosuppressant. The primary study endpoint was decrease in ALP, and the secondary endpoint was the responder rate for subjects achieving ALP<1.67×ULN and total bilirubin within normal limit, and >15% decrease in ALP. […] According to the original statistical plan, changes in ALP were calculated using the last observation carried forward. […]

[1] = Preclinical elimination study; type: in vivo
[2] = test system: subjects with an intrahepatic cholestatic disease such as PBC; assay: Example 2: treatment of adult subjects with an intrahepatic cholestatic disease such as PBC; type: in vivo, human; details: 5, 10, 25, or 50 mg/day orally
Method: Subjects are permitted their usual other medications, including UDCA. […] At each visit, after a 12-hour fast, blood is drawn and urine collected; and a standard metabolic panel, complete blood count, and standard urinalysis are performed. Blood is analyzed for TC, HDL-C, TG, VLDL-C, LDL-C, and apolipoprotein B, for liver function markers such as total and bone-specific alkaline phosphatases, for γ-glutamyl transpeptidase, and also for total and conjugated bilirubin. The subjects also maintain health diaries, which are reviewed at each visit.

[3] = test system: subjects with mixed dyslipidemia; details: cited from earlier work
[4] = gradient-gel electrophoresis, cited from earlier work
[5] = once daily oral, 8 weeks, seladelpar 50 or 100 mg, ATV 20 mg

With `CCO[C@H](COc1ccc(C(F)(F)F)cc1)CSc1ccc(OCC(=O)O)c(C)c1` [Seladelpar, (R)-2-(4-((2-ethoxy-3-(4-(trifluoromethyl)phenoxy)propyl)thio)-2-methylphenoxy)acetic acid] the “specificity for PPARδ compared with PPARa” value (PPARa) was over 600 fold, the “adverse events of pruritus” value (subjects with PBC) was “no adverse events of pruritus were reported” and the “distribution of drug in bile” value [1] was “concentrated in bile”. The “improvement in disease (ALP and GGT)” value [2] was “a decrease in ALP and GGT”, the safety and tolerability ([3]; 50 or 100 mg once daily oral, 8 weeks) was “safe and generally well-tolerated” and the “reduction of high-sensitivity C-reactive protein” value ([3]; compared to placebo, seladelpar 50 or 100 mg once daily oral alone and in combination with ATV 20 mg, 8 weeks, P<0.05) was 43-72%. For the same compound, the “raise of HDL-C” value ([3]; compared to placebo, seladelpar 50 or 100 mg once daily oral alone and in combination with ATV 20 mg, 8 weeks) was 1-12%, the “reduction of the percentage of subjects meeting the criteria for metabolic syndrome” value ([3]; mixed dyslipidemia) was over 2 fold and the “decrease of small/very small LDL particles” value [3, 5] was 40-48%. For the same compound, the “increase of large LDL particles” value ([3]; once daily oral, 8 weeks, seladelpar 50 or 100 mg) was 34-44%, the “conversion of LDL particle size pattern B (predominant LDL particle size less than 25.75 nm)” value [4] was “to pattern I or A” and the “conversion of LDL particle size pattern I (predominant LDL particle size 25.75 nm to 26.34 nm)” value ([4]; pattern A = predominant LDL particle size greater than 26.34 nm) was “to pattern A”.
In the case of `CC(C)c1c(C(=O)Nc2ccccc2)c(-c2ccccc2)c(-c2ccc(F)cc2)n1CC[C@@H](O)C[C@@H](O)CC(=O)O` [ATV, atorvastatin, reference compound], the “decrease of large LDL particles” value ([3]; once daily oral, 8 weeks, ATV 20 mg) is listed as 30% and the “decrease of small/very small LDL particles” value [3, 5] is listed as 25%.
